# According to patent US20120010178A1, “METHODS AND COMPOUNDS FOR TREATMENT OF NEURODEGENERATIVE DISORDERS” (PRESIDENT AND FELLOWS OF HARVARD COLLEGE, priority 2008, published 2012):
# “Also recorded” adds a separate entry of the source.
# Assays:
# SMN [1] = assay: SMN immunofluorescence quantification (cytoplasm, nucleus, GEMs) in fibroblasts from SMA patients; type: cell-based, human; conditions: for levels of cytoplasmic and nuclear SMN (in words) / fold increase in cytoplasmic SMN / fold increase in nuclear SMN: SMA patient fibroblasts; for levels of cytoplasmic and nuclear SMN (in words): substance alone
# Experimental: Specifically, fibroblasts from patients suffering from SMA were treated with Ionomycin (a channel modulator), Ouabain (a cardiac glycoside and channel modulator), PDGF, SAHA (an HDAC inhibitor), Lactacystin (a proteasome inhibitor) or WIN 55,212-2 (a cannabinoid receptor […] and GPCR ligand) for 72 hours. The cells were fixed with methanol/acetone and stained with Pharmingen BD antibodies, followed by 488 AlexaFluor staining. Images were obtained with 60× lens on Zeiss LSM510 META on an inverted confocal microscope.
# For example, fibroblasts from patients suffering from SMA were treated with Ouabain, Digoxin or Lanatoside at a concentration of 0, 2.5 nM, 5 nM, 10 nM, 20 nM, 40 nM, 80 nM, […] for 72 hours. The cells were fixed with methanol/acetone and stained with Pharmingen BD antibodies, followed by 488 AlexaFluor staining. Images were obtained with 60× lens on Zeiss LSM510 META on an inverted confocal microscope.
# An assay was established for high-content evaluation of SMN protein level in different cellular compartments after treatment with small molecules. SMN protein was visualized by immunofluorescent staining and multiple fields from each plate well were scanned by an automated confocal Opera microscope. […] For each well, the algorithm generated quantitative parameters representing number of cells, as well as SMN fluorescent intensity per cell in cytoplasm, nucleus, number and intensity of GEMs (FIG. 15). […] During the assay transfer to the robotic platform fixation with the ice cold methanol was technically limited, therefore to preserve the maximum possible window we chose to perform the screen on parental fibroblast with PFA fixation.
# For fibroblast assays, human fibroblasts lines GM09677 (derived from patient with SMA type 1 disease) and GM03814 (derived from unaffected parental SMA carriers) were used (Coriell Cell Repositories). […] For secondary assays cells from GM09677 line were used.
# Fibroblasts were grown in MEM media (Invitrogen) supplemented with 5% Fetal Bovine Serum (FBS, Invitrogen), 2 mM glutamine and 1% penicillin-streptomycin (100 U/ml) in a presence of 5% CO2 at 37° C. For drug treatments, cells were plated and treated 24 h later with 10 μM MG132 (Biomol International), […] Calpeptin (Biomol International), 10 mM ammonium chloride, 1 μM myristoylated PKI, or vehicle for the designated times.
# (§1) Compounds were stored at appropriate temperature and dissolved accordingly to the manufacturers (Tocris, Enzo, EMD and Sigma-Aldrich) in DMSO (Sigma-Aldrich), unless stated otherwise (Monensin Na in EtOH, DMPQ in water). Growth factors and PDGF neutralizing antibodies (R&D Systems) were reconstituted with buffers recommended by the supplier. For generation of the dose curves, 1×10^3 fibroblasts were plated on to 96-well Greiner Senso plates (VWR) and treated with compounds on the second day then fixed and stained at the indicated time points. For GSK inhibitors and performing p-GSK3b(Ser9) detection, two days after plating growth media containing 5% FBS was replaced to the media with FBS reduced down to 0.5%, to starve cells for 72 hours. Addition of the GSK inhibitors was done in 5% FBS enriched media.
# SMN [2] = assay: High-content fibroblast screen for compounds that modulate SMN level; conditions: for SMN level in fibroblast screen (increase or decrease): human fibroblasts, 2-3 days with compound; for concentration at which SMN level was increased: during screening;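 on all read-outs here: Anti-SMN immunostaining with confocal imaging of nuclear and cytoplasmic SMN and gem counts, tested at 0.1, 1 and 10 uM, fold change relative to negative control wells on each plate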
# SMN [3] = assay: Inhibition of PDGF-stimulated SMN increase in fibroblasts by kinase/receptor inhibitors; type: cell-based, human; conditions: SMA patient fibroblasts, PDGF plus inhibitor or neutralizing antibody
# Experimental: Fibroblasts from patients suffering from SMA were treated with PDGF at a concentration of 0, 0.3 ng/ml, 0.63 ng/ml, 1.25 ng/ml, 2.5 ng/ml, 5 ng/ml, 10 ng/ml or 20 ng/ml, in the absence or in the presence of 25 uM DMPQ or 25 uM AG-1296 respectively for 72 hours. The levels of both cytoplasmic and nuclear SMN were detected and quantified using the method described in Example 2.
# (§2) Fibroblasts from patients suffering from SMA were either control treated or treated with PDGF at a concentration of 0, 0.63 ng/ml, 1.25 ng/ml, 2.5 ng/ml, 5 ng/ml, 10 ng/ml or 20 ng/ml, in the absence or in the presence of 50 uM LY294002 or 2 uM P1-103 respectively for 72 hours. The levels of both cytoplasmic and nuclear SMN were detected and quantified using the method described in Example 2.
# as §2, with “of” for “of 50 uM LY294002 or”, “uM Papamycin” for “uM P1-103 respectively”, “Example x.” for “Example 2.”
# A range of concentrations were tested in order not to miss the effects. SMN level were evaluated by Opera Evoteck in each cellular compartment and to assess the cell numbers that are summarized in the Table 3.
# as §1, with “media. As previously described, starvation increases levels of constitutively activate GSK3b kinase, allowing to achieve a more dramatic inhibitory effect when GSK inhibitors are added together with growth factors that are also known to inhibit GSK by Ser-9 phosphorylation. […] For all compounds and growth factors control wells received solvent in amount equivalent to the highest concentration of the compound in a dose curve. For PDGF inhibitory studies, cells were pre-treated with kinase inhibitors for 2 hours and PDGF was added with a fresh kinase inhibitor solution and incubated for an additional 3 days.” for “media.”
Compound,levels of cytoplasmic and nuclear SMN (in words) (SMN [1]),SMN level in fibroblast screen (increase or decrease) (SMN [2]),further results
N#CCCc1ccc2c(c1)-c1[nH]c3ccc([N+](=O)[O-])cc3c1CC(=O)N2,able to elevate SMN in patient fibroblasts,SMN is increase,
C[C@H](CCC(=O)O)C[C@H](C)C[C@H](C)C(=O)/C=C(\O)[C@H](C)C[C@H](C)C/C=C/[C@@H](C)[C@@H](O)[C@@H](C)[C@@H](O)C[C@@H]1CC[C@@](C)([C@H]2CC[C@@](C)([C@@H](C)O)O2)O1 [Ionomycin],increase in SMN levels; also recorded: active in elevating the levels of SMN; also recorded: able to increase SMN level,increase SMN,levels of cytoplasmic and nuclear SMN (in words) (SMN [1]; listed as ionomycin): elevation of SMN levels; also recorded: active
CC(=O)N[C@@H](CSC(=O)[C@]1([C@@H](O)C(C)C)NC(=O)[C@H](C)[C@@H]1O)C(=O)O [Lactacystin],increase in SMN levels,increase SMN,"effect on GEMs (number / intensity, in words) (SMN [1]; fibroblasts): mostly affected GEMs"
"O=C(CCCCCCC(=O)Nc1ccccc1)NO [SAHA, Suberoylanilide Hydroxamic Acid]",increase in SMN levels,increase SMN,"effect on GEMs (number / intensity, in words) (SMN [1]; fibroblasts): increased GEM counts at the lower concentrations; nuclear SMN at the higher dosage (in words) (SMN [1]; fibroblasts, higher dosage): increased nuclear SMN predominantly"
"O=C1Nc2ccc3ncsc3c2C1=Cc1cnc[nH]1 [PKR inhibitor, 6,8-Dihydro-8-(1H-imidazol-5-ylmethylene)-7H-pyrrolo[2,3-g]benzothiazol-7-one]",,SMN is increase,fold increase in cytoplasmic SMN (SMN [1]): 2 fold; fold increase in nuclear SMN (SMN [1]): 1.5 fold
C/C=C(/C)C(=O)O[C@H]1C(C)=C2[C@H]([C@@H]1OC(=O)CCCCCCC)[C@@](C)(OC(C)=O)C[C@H](OC(=O)CCC)[C@@]1(O)[C@H]2OC(=O)[C@@]1(C)O [Thapsigargin],active in elevating the levels of SMN; also recorded: generally active; also recorded: caused SMN upregulation,increase SMN,levels of cytoplasmic and nuclear SMN (in words) (SMN [1]; listed as thapsigagin): elevation of SMN levels
COc1cc2ncc(-c3ccccc3)nc2cc1OC [AG-1296],,decreased SMN,"PDGF-stimulated SMN increase in presence of inhibitor (in words) (SMN [3]): sufficient to prevent PDGF effect on SMN; also recorded: abrogated; PDGF-stimulated SMN increase in presence of inhibitor (in words) (SMN [3]; listed as AG-1236): blocked; also recorded: abolished; decrease of basal level of SMN (SMN [1]; added to the regular serum media in which cells are maintained, no added PDGF): 20%"
OCCN(CCO)c1nc(N2CCCCC2)c2nc(N(CCO)CCO)nc(N3CCCCC3)c2n1 [Dipyridamole],,increase SMN,
"Cc1c(C(=O)c2cccc3ccccc23)c2cccc3c2n1[C@H](CN1CCOCC1)CO3 [WIN 55, 212-2]",increase in SMN levels,increase SMN,fold increase in cytoplasmic SMN (SMN [1]): 1.5 fold; fold increase in nuclear SMN (SMN [1]): 2 fold
Oc1cccc(-c2nc(N3CCOCC3)c3oc4ncccc4c3n2)c1 [PI-103],,decreased SMN,PDGF-stimulated SMN increase in presence of inhibitor (in words) (SMN [3]): PDGF does not increase the levels of SMN; also recorded: able to prevent PDGF induced SMN increase in all cellular compartments; also recorded: completely abolished; PDGF-stimulated SMN increase in presence of inhibitor (in words) (SMN [3]; listed as P1-103): abrogated
COc1ccc(C[C@H]2NC[C@H](O)[C@H]2OC(C)=O)cc1 [Anysomycin],,increase SMN,concentration at which SMN level was increased (SMN [2]): 0.1 µM
O=C1Nc2ccc3ncsc3c2/C1=C/Nc1ccc(S(=O)(=O)Nc2ccccn2)cc1 [GW8510],,SMN is increase,
C[C@@H]1O[C@@H](O[C@H]2C[C@@H](O)[C@]3(CO)[C@H]4[C@H](O)C[C@]5(C)[C@@H](C6=CC(=O)OC6)CC[C@]5(O)[C@@H]4CC[C@]3(O)C2)[C@H](O)[C@H](O)[C@H]1O [Ouabain],increase in SMN levels,increase SMN,SMN level in fibroblast screen (increase or decrease) (SMN [2]; listed as ouabain): consistently emerged as hits
CNc1ccc2oc(C[C@H]3O[C@@]4(CC[C@H]3C)O[C@H]([C@H](C)C(=O)c3ccc[nH]3)[C@H](C)C[C@H]4C)nc2c1C(=O)O [Calcimycin],elevation of SMN levels; also recorded: active in elevating the levels of SMN; also recorded: generally active,increase SMN,levels of cytoplasmic and nuclear SMN (in words) (SMN [1]; listed as A23187): active
CC[C@@]1([C@@H]2O[C@@H]([C@H]3O[C@@](O)(CO)[C@H](C)C[C@@H]3C)C[C@@H]2C)CC[C@H]([C@]2(C)CC[C@]3(C[C@H](O)[C@@H](C)[C@@H]([C@@H](C)[C@@H](OC)[C@H](C)C(=O)O)O3)O2)O1 [Monensin Na],,increase SMN,fold increase in nuclear SMN (SMN [1]): 2 fold
Coumermycin A1,,increase SMN,concentration at which SMN level was increased (SMN [2]): 10 µM
CC(=O)O[C@H]1C[C@H](O[C@H]2[C@@H](O)C[C@H](O[C@H]3[C@@H](O)C[C@H](O[C@H]4CC[C@@]5(C)[C@H](CC[C@@H]6[C@@H]5C[C@@H](O)[C@]5(C)[C@@H](C7=CC(=O)OC7)CC[C@]65O)C4)O[C@@H]3C)O[C@@H]2C)O[C@H](C)[C@H]1O[C@@H]1O[C@H](CO)[C@@H](O)[C@H](O)[C@H]1O [Lanatoside C],,increase SMN,
Nc1ccc(-c2cccc3c(=O)cc(N4CCOCC4)oc23)cc1 [PI-828],,decreased SMN,
ceramide,,increase SMN,
